# Values of other authors in patent publication US12727761B2, “Dosimetry system for photodynamic anitmicrobial therapy device of infectious keratitis” (UNIVERSITY OF MIAMI, priority 2020, dated 2026).
# How the values were obtained:
# [1] = tested on: fungal and bacterial isolates derived from patients with infectious keratitis; conditions: Rose Bengal photodynamic antimicrobial therapy (RB-PDAT)
# [2] = tested on: corneal infection; conditions: RB-PDAT as experimental therapy for corneal infection
# [3] = tested on: Candida albicans; conditions: erythrosine-mediated PDT
# [4] = tested on: keratitis derived Acanthamoeba castellanii
structure (smiles),measurement,setting,value
O=C([O-])c1c(Cl)c(Cl)c(Cl)c(Cl)c1-c1c2cc(I)c(=O)c(I)c-2oc2c(I)c([O-])c(I)cc12.[Na+].[Na+] [Rose Bengal],inhibition of fungal and bacterial isolates,[1],fully inhibit
same,patients who avoided undergoing emergency corneal transplantation,[2],approximately 72%
O=C1OC2(c3ccccc31)c1cc(I)c(O)c(I)c1Oc1c2cc(I)c(O)c1I [erythrosine],reduction in concentration,[3],1.97 log10
CN(C)c1ccc2nc3ccc(=[N+](C)C)cc-3sc2c1 [methylene blue],respiratory activity,[4]; methylene blue-mediated PDT,significantly reduce
same,effects with traditional Acanthamoeba treatment regimens,[4]; methylene blue-mediated PDT combined with traditional treatment regimens,synergistic effects
